The source of these data is patent US10829731B2, “Biocatalysts for conversion of thermochemical waste streams” (Alliance for Sustainable Energy, LLC, priority 2018, dated 2020).

The test system of one assay is P. putida KT2440. Nature of the assay: microbe, parasite or virus in culture. It counts as cell-based. As to conditions: Pseudomonas putida, KT2440. As to the method:
Toxicity of the TC wastewater streams and toxic compounds present in FPS were evaluated in microplate growth assays performed in a Bioscreen C MBR analyzer (Growth Curves US, Piscataway, N.J.). Pre-cultures of the strains were prepared by inoculating 25 mL M9 medium supplemented with 20 mM glucose in a 125 mL baffled flask to an OD600 of 0.05-0.1 and incubating shaking at 225 rpm, 30° C. At mid log phase (OD600 0.5-1.0), cells were harvested by centrifugation at 13,000 rpm, and the cell pellets were washed twice and resuspended in M9 medium without a carbon source. These resuspended cells were used to inoculate microplate wells containing 200 μL of M9 medium supplemented with 20 mM glucose and various concentrations of TC wastewater streams or their components to OD600 0.1. Microplates were then incubated at 30° C. with maximum shaking and growth was measured by reading the absorbance (OD420-580) every 30 minutes. Growth rates were calculated according to the growth curve equation.
The compounds present in the FPF stream were classified according to chemical functionality, aldehydes, ketones, phenolics, or acids, and the growth rate of P. putida was evaluated against each class of compounds.
`CC=O` [Acetaldehyde]: the response was half-maximal at 16.2 mM (EC50).
Turning to `CC(C)=O` [Acetone], it took 39.3 mM to reach a half-maximal effect (EC50).
Same read-out and setting: for `C=CC(=O)O` [Acrylic acid] the value was 11.7 mM; for `Oc1ccccc1O` [Catechol], 42.4 mM.
`C/C=C/C=O` [Crotonaldehyde]: the concentration for a half-maximal effect (EC50) (usually the concentration at which the effect is half-maximal) was determined as 17.4 mM.
Turning to `O=CC=O` [Glyoxal], the concentration for a half-maximal effect (EC50) was determined as 3.5 mM.
For the molecule `CC(=O)CCO` [Methylolacetone], the half-maximal effective concentration (EC50) was found to be 28.8 mM.
In turn, `Cc1cccc(O)c1` [m-Cresol] came in with a concentration giving a half-maximal response (EC50) of 3.46 mM.
`Cc1ccccc1O` [o-Cresol]: the half-maximal effective concentration (EC50) came to 3.12 mM.

The assay is the same for the next values; noted with them: Pseudomonas putida, KT2440, effective concentration that decreases the growth rate by 50%; M9 medium with 20 mM glucose, 30° C.
In the case of `C=O` [Formaldehyde], the concentration for a half-maximal effect (EC50) was roughly 2 mM.
Same read-out and setting: in the case of `Oc1ccccc1` [Phenol] it was 9.24 mM.

The same assay, now with this note: Pseudomonas putida, KT2440, effective concentration that decreases the growth rate by 50%; M9 medium with 20 mM glucose, 30° C.; read-out: EC50.
Consider `Cc1ccc(C)c(O)c1` [2,5-Xylenol], for which the concentration for a half-maximal effect (EC50) stood at 2.52 mM.
The same measure, in the same setting: for `O=C1C=CCO1` [2-Butenolide] the value was 7.77 mM; for `CC1=CCOC1=O` [2-Methyl-butenolide], 5.02 mM; for `CCC(=O)CO` [2-Oxobutanol], 27.8 mM.
Turning to `O=Cc1ccoc1` [3-Furancarboxaldehyde], the EC50 was found to be 13.9 mM.
Still for that read-out and setting: in the case of `O=Cc1ccc(CO)o1` [5-HMF, 5-(Hydroxymethyl)furfural] it was 14.3 mM; in that of `CC(=O)O` [Acetic acid], 64.1 mM.
On the same count and under the same terms, in the case of `CCCC(=O)O` [Butanoic acid] it was 35.2 mM.
The same measure, in the same setting: in the case of `O=Cc1ccco1` [Furfural] it was 21 mM.
`O=CCO` [Glycolaldehyde]: the EC50 is roughly 2 mM.
As for `COc1ccccc1O` [Guaiacol], the EC50 amounted to 13.3 mM.
Regarding `C=C(CC(=O)O)C(=O)O` [Itaconic acid], the concentration giving a half-maximal response (EC50) was 89.4 mM.
As for `CCC(=O)O` [Propionic acid], the concentration for a half-maximal effect (EC50) is 22.4 mM.
Still for that read-out and setting: in the case of `COc1cccc(OC)c1O` [Syringol] it was 4.21 mM; in that of `COc1cc(C=O)ccc1O` [Vanillin], 6.34 mM.
With `Cc1ccc(O)cc1` [p-Cresol], the 50% effective concentration (EC50) was determined as 2.25 mM.

The assay is the same for the next values; noted with them: effective concentration that decreases the growth rate by 50%; M9 medium with 20 mM glucose, 30° C.
Take `C=O` [Formaldehyde]: a half-maximal response (EC50) required 2.07 mM.

Still in this assay, the particulars now being: effective concentration that decreases the growth rate by 50%; M9 medium with 20 mM glucose, 30° C.; read-out: EC50.
Turning to `Cc1ccc(C=O)o1` [5-methylfufaral], the EC50 was determined as 15 mM.
For `CC(=O)CO` [Acetol], the EC50 was 12.4 mM.
In the case of `O=C1CCCC1` [Adipic ketone], the EC50 stood at 9.8 mM.
For the molecule `O=CCO` [Glycolaldehyde], the EC50 was found to be 2.14 mM.

The test system of a further assay is GFP-expressing strain of P. putida KT2440. As to the kind of experiment: GFP immunoblot of cell-free extract after GA or FPF treatment. As to conditions: GA (2 mM) or FPF (0.05% (v/v)). It counts as cell-based, Pseudomonas putida. The source says:
Aldehydes, the key toxic component of the FPF stream, can confer molecular toxicity via protein damage. Indeed, GA, the major aldehyde present in FPF is a well-known post-translational protein-damaging agent. […] Cell-free extract from these conditions was immunoblotted to detect the presence of GFP. […] Furthermore, GFP inclusion bodies formed in cells treated with GA or FPF, which might be due to misfolding or cross-linking of the GFP protein. […] Thus, in an embodiment, overexpression of chaperones to rescue damaged or misfolded proteins was chosen as a strategy to enhance the tolerance of P. putida to FPF.
The fate of GFP in the LJ014 strain after treatment with FPF was then examined.
(In general: Immunoblotting shows a protein as a band on a membrane.)
Regarding `O=CCO` [Glycolaldehyde], the “free-GFP level relative to the untreated controls” value came out at 46.8%.
